The record followed here is US20190141999A1, “Methods For Repelling Blood-Sucking And Biting Insects, Ticks And Mites” (The United States of America, as represented by the …, priority 2017, published 2019).

Where two headings read alike, the source gives them in different places. Marks after values point to notes of the source that are not given here. Where only a bound is given, the exact number is not on record here.

The term mortality denotes the share of the test organisms that died. The low end stands for more survivors, the high end for fewer survivors.

The test system of data set [1] is horn flies. Description: horn fly blood-feeding repellency. It counts as in vivo, Haematobia irritans. The method, then:
Comparisons of coconut FFA, methyl laurate, and lauric acid against horn fly blood-feeding: We also tested coconut FFA and its major compositional compound, lauric acid, for their repellency against horn flies. […] F=41.5 P<0.0001). Dose response curves of repellency against horn flies from coconut FFA and lauric acid: […] F=4.08-4.38 P<0.05). […] A 50% repellency was shown when the dose was reduced to 2 mg. No significant differences in the least repellency concentrations were found among the two repellent candidates, with average 7 mg of both coconut FFA and lauric acid was needed.

In data set [2] the test system is Aedes aegypti. Put plainly: minimum effective dosage for biting protection. The data set is classed as in vivo. The conditions noted are these: N = 3-5.
Data set [3] relates to bed bugs. Put plainly: bed bug petri-dish repellency assay. The data set is classed as in vivo, Cimex letularius. The text has this: (§1) Bed bugs chose to rest on control tents (hexane-treated) when given a choice of coconut FFA-treated tent (FIG. 9C). This effect lasted on tents treated 14 d earlier.
The subject of data set [4] is stable flies. Put plainly: stable fly laboratory repellent bioassay (blood-feeding). It counts as in vivo, Stomoxys calcitran. The conditions noted are these: for repellency of C8 to C18 acids: FIG. 3.
Data set [5] relates to stable flies. The conditions noted are these: for knock-down: lowest dose, 2 mg; for knock-down times: 20 mg and 10 mg doses.
Data set [6] concerns Aedes aegypti. Description: arm-in-cage assay, biting protection. The data set is classed as in vivo. The conditions noted are these: 1st hour, N = 3.
Data set [7] deals with stable flies. Description: stable fly laboratory repellent bioassay (blood-feeding). It counts as in vivo, Stomoxys calcitran. The method, then:
Comparisons of coconut oil, coconut FFA, and lauric acid against stable fly blood-feeding: Using our modified stable fly laboratory repellent bioassay, we tested coconut oil, coconut FFA and its major compositional compound, lauric acid, for their repellency against stable flies.
In FIG. 11, repellent activity tests were conducted under the laboratory conditions (22° C., 50% RH), 48-hr starved stable flies were used, and a total of at least 5 replicates were accumulated.

Data set [8] relates to bed bugs. Put plainly: bed bug choice among treated tents (harborages). It counts as in vivo, Cimex letularius. The settings on record: control (hexane) vs treated tent.
Source text: as §1

The next data set relates to ticks. Put plainly: tick repellency (species not stated). The data set is classed as in vivo. The settings on record: at 1.25%.
The test system of data set [9] is horn flies. Put plainly: mortality of horn flies after exposure. The data set is classed as in vivo. From the text:
The present invention discloses a blood-sucking insects and biting insects (e.g., stable flies, horn flies, ticks and mites repellent compounds (e.g., lauric acid), identified from coconut oil that is listed as a GRAS (Generally Recognized as Safe, http://www.fda.gov/Food/IngredientsPackagingLabeling/GRAS/) substance. Coconut oil is an edible oil extracted from the kernel or meat of mature coconuts harvested from the coconut palm (https://en.wikipedia.org/wiki/Coconut_oil). It contains a high level of low molecular weight saturated fatty acids (Gervajio, G. C., Fatty acids and derivatives from coconut oil, IN: Bailey's Industrial Oil and Fat Products, Sixth Edition, Six Volume Set, Fereidoon Shahidi, Ed., 2005, John Wiley & Sons, Inc.). […] Both have over 2-weeks longevity deterring stable fly feeding (>90% repellency). […] This compound is listed as one of CFR 21 products that is permitted for direct addition to food for human consumption by FDA (Code of Federal Regulations, Title 21). […]

With `CCCCCCCCCCCC(=O)O` [lauric acid], in the data set on horn flies [1] (2 mg dose), the “repellency against horn flies” value is given as 50%. Moreover, the “least repellency concentration, average amount needed” value with horn flies [1] (in vivo) is listed as 7 mg. Besides, the results for the “Minimum effective dosage required for biting protection” value in the data set with Aedes aegypti [2] and in the data set on Aedes aegypti [2] (listed as Lauric acid) were 0.75 mg/cm^2 and 0.750 ± 0.000 mg/cm^2, respectively. Further, in the data set on bed bugs [3] (at 5%), the effectiveness duration result is listed as “up to 24 hours”. The compound further returned a repellency against bedbugs with bed bugs [3] (at 5%) of 100%. Also, in the data set with stable flies [4] (2-week longevity test (FIG. 5)), the “repellency in longevity test” value amounted to 94%. In addition, the “toxic effect” value in the data set on stable flies [5] (stable flies) is on record as “no toxic effect”. Also, the biting protection was found to be 20 ± 0% in the data set with Aedes aegypti [6] (6.25%); 20 ± 0% with Aedes aegypti [6] (12.50%); 73% with Aedes aegypti [6] (25% (0.42 mg/cm^2)); 74 ± 6% in the data set with Aedes aegypti [6] (25% (0.42 mg/cm^2), listed as Lauric acid); 60 ± 11% in the data set on Aedes aegypti [6] (50%). The “repellency against stable flies” value in the data set on stable flies [7] (2 mg dose) is given as “No repellency”. In addition, the “LR50 (95% C.I.), least repellency concentration” value in the data set on stable flies [7] (in vivo) is on record as 3.69 (3.23-6.53) mg/24 cm^2. In the data set with stable flies [7] (in vivo), the “LR90 (95%, C.I.), least repellency concentration” value is recorded as 13.61 (9.11-32.59) mg/24 cm^2. In addition, the “average amount needed to achieve 90% repellency” value with stable flies [7] (in vivo) was found to be 13 mg.

For `CCCCCCCC(=O)O` [C8 acid, Caprylic acid], the “repellency of C8 to C18 acids” value in the data set on stable flies [4] (dose not stated) is listed as greater than 80%.

For `CCN(CC)C(=O)c1cccc(C)c1` [DEET, N,N-diethyl-m-toluamide, reference compound], the “Minimum effective dosage required for biting protection” value in the data set on Aedes aegypti [2] worked out at 0.047 ± 0.000 mg/cm^2. For the same compound, the repellency remaining entry in the data set with bed bugs [3] (7th day after application (FIG. 9B)) is listed as “below 40%”. The results for the biting protection with Aedes aegypti [6] (6.25%), in the data set with Aedes aegypti [6] (12.50%) and in the data set on Aedes aegypti [6] (25% (0.42 mg/cm^2)) were 58-88* %, 77-97* % and “≈93* %”, respectively. The “choice of control tents over treated tents” value with bed bugs [8] is “no longer significant at 7 d and 14 d”.

Regarding `CCCCCCCCCCC(=O)O` [C11], in the data set with stable flies [4] (dose not stated), the “repellency of C8 to C18 acids” value is recorded as “strongest repellency”.

Take `CCCCCCCCC(=O)O` [C9]: the “repellency of C8 to C18 acids” value in the data set on stable flies [4] (dose not stated) is recorded as “strongest repellency”.

In the data set on ticks, `CCCCCCCCCCCC(=O)OC` [methyl laurate] registered a repellency against ticks of 100%. Besides, in the data set on stable flies [4] (20 mg dosage, listed as C12 Me), the “repellency against stable flies” value stood at 100%. Further, the “repellency of methyl esters” value with stable flies [4] (initial bioassays, dose not stated) is roughly 100%. In addition, the knock-down result with stable flies [5] is listed as “no knock-down”. For the same compound, in the data set with stable flies [5] (stable flies), the “mean LD” value was 11 to 20 min, the “time to mortality after exposure” value lay in the range of 15 to 20 min and the “toxic effect” value is “least toxic compound”. The compound also yielded a mortality in the data set with stable flies [5] (stable flies after exposure) of 100%. The “time to mortality after exposure” value in the data set with horn flies [9] (horn flies) was in the range of 15 to 20 min. Also, the mortality in the data set on horn flies [9] (horn flies after exposure) was found to be 100%.

Turning to `CCCCCCCCCCCCC(=O)O` [C13], the “repellency of C8 to C18 acids” value in the data set with stable flies [4] (dose not stated) is “strongest repellency”.

As for `CCCCCCCC(=O)OC` [C8 Me, Methyl octanoate], the “knock-down times” value in the data set on stable flies [5] is “significantly shorter knock-down times”. The knock-down result in the data set on stable flies [5] is reported as “no knock-down”. Further, the “repellency against stable flies” value is listed as “strongest repellency” with stable flies [7] (2 mg dose) and 100% in the data set with stable flies [7] (20 mg dosage).

For the compound `CCCCCCCC/C=C\CCCCCCCC(=O)OC` [methyl oleate], the “repellency against stable flies” value in the data set with stable flies [7] (20 mg dosage) is on record as “did not showed significant repellency”.

For `CCCCCCCCCC(=O)OC` [C10 Me, Methyl decanoate], the “knock-down times” value in the data set on stable flies [5] is “significantly shorter knock-down times”. This compound also returned a mortality in the data set on stable flies [5] (in vivo) of roughly 100%. Moreover, in the data set with stable flies [5] (stable flies), the knock-down time entry is “less than 3 mins”. For the same compound, the “toxic effect” value in the data set with stable flies [5] (stable flies) is “most active toxicant”. Moreover, the “time to mortality after exposure” value with stable flies [5] (stable flies, listed as 10 Me ester) is 10 to 15 min; with stable flies [5] (stable flies, listed as C10 methyl ester), less than 10 min. Also, the “repellency against stable flies” value in the data set on stable flies [7] (20 mg dosage) came to 100%.
